{"source": "paper PMC10011554", "about": "“BET inhibitor trotabresib in heavily pretreated patients with solid tumors and diffuse large B-cell lymphomas” (Nature Communications, 2023)", "experiment": "Adverse events, DLTs, MTD and RP2D in phase I study CC-90010-ST-001 (NCI CTCAE v4.03)", "format": "in vivo", "conditions": "for TRAE: ALT increased / TRAE: Anemia / TRAE: Any TRAE / TRAE: Asthenia / TRAE: Decreased appetite / TRAE: Dehydration / TRAE: Dermatitis acneiform / TRAE: Diarrhoea / TRAE: Dysgeusia / TRAE: Fatigue / TRAE: Hyperglycemia / TRAE: Hypertension / TRAE: Hyponatremia / TRAE: Hypophosphatemia / TRAE: Nausea / TRAE: Neutropenia / TRAE: Platelet count decreased / TRAE: Stomatitis / TRAE: Thrombocytopenia / TRAE: Vomiting: part A 45 mg/day", "description": "The primary endpoints of the study were the safety and tolerability of trotabresib, as well as the MTD and/or RP2D of trotabresib. Safety was assessed using the National Cancer Institute Common Terminology Criteria for Adverse Events v4.03[53].\nThe decision to evaluate additional subjects within a dose cohort, a higher dose cohort, intermediate dose cohorts, smaller dose increments, alternate dosing schedules, or declare an MTD will also be determined by the SRC, based on their review of clinical and laboratory safety […]\n7.2.4. Definition of a Subject Evaluable for DLT\nAfter the first dose is administered in any cohort during dose escalation, subjects in each cohort […]\nmore than one subject per day will be enrolled in a given dose escalation cohort.\nA subject evaluable for DLT is defined as one that: […]\nwithout experiencing a DLT,\nSubjects non-evaluable for DLT will be replaced. Additional subjects within any dose cohort may be enrolled at the discretion of the SRC. Intra-subject dose escalation will not be allowed during the DLT assessment period.\n7.2.5. Definition of Maximum Tolerated Dose (MTD) […]\nof MTD is described in Section 7.2.2.\nA variable dose cohort (eg, less frequent dosing) may be evaluated to accurately determine the MTD at the discretion of the SRC.\n7.2.6. Definition of Dose-Limiting Toxicity (DLT) […]\nused as a guide for the grading of severity of adverse events. A DLT is defined as any of the following toxicities occurring within the DLT assessment unless the event can clearly be […]\nDo se-limiting toxicities are described below:\n• Hyperglycemia meeting any of the following criteria:\n− Grade 3 or greater fasting hyperglycemia (> 250 mg/dL) lasting > 4 days despite optimal medical treatment\n(1 picture or pasted object on this page, not shown here)\n− Hyperglycemia associated with diabetic ketoacidosis or nonketotic hyperosmolar coma regardless of glucose level\n− Hyperglycemia that necessitates dose reduction despite dose interruption and resolution to ≤ grade 1 hyperglycemia within two weeks as described in […]\n• Any Grade 4 non-hematologic toxicity of any duration\n• Any non-hematologic toxicity Grade ≥ 3 EXCEPT for:\n− Grade 3 diarrhea, nausea, or vomiting of ≤ 3 days duration (with optimal medical […]\n− Grade 3 rash of the acneiform, pustular or maculopapular type which resolves to […]\nlevel with resumption of study drug at the same dose (with optimal medical […]\n− Grade 3 fatigue which resolves to Grade ≤ 2 within 7 days of study drug […]\nthe same dose (with optimal medical management).\n• Hematological toxicities as follows:\n− Grade 4 neutropenia lasting > 7 days\n− Grade 4 thrombocytopenia lasting > 7 days, Grade ≥ 3 thrombocytopenia with clinically significant bleeding\n• Any AE, Grade ≥ 2 not specified or exempt above, unless clearly determined to be unrelated to the drug, necessitating dose-level reduction during Cycle 1.\nIsolated laboratory changes without associated clinical signs or symptoms (eg, hypomagnesemia, hypermagnesemia, hypoalbuminemia, hypophosphatemia, lymphocyte count increased or decreased) may not be included in this definition. These findings will be discussed and reviewed […]\n7.2.7. Criteria for Dose Escalation in the Next Cohort of Subjects\nDuring Part A, the dose escalation criteria are described in Section 7.2.2.\n7.2.8. Definition of Stopping Criteria\nDuring Part A, the dose escalation stopping rules are in Section 7.2.2.\n7.2.9. Permitted Study Drug Adjustments\nDose reductions are permitted in any cycle, including Cycle 1.\n• Dose reductions that occur in Cycle 1 during dose escalation will constitute DLT as […]", "key": {"[1]": {"conditions": "part A (N = 69), 02 Dec 2019 cutoff"}}, "data": [{"compound": "Cn1cc(-c2cc(S(C)(=O)=O)ccc2OCC2CC2)c2ccccc2c1=O", "note": "[trotabresib]", "values": [{"measurement": "MTD", "setting": "Schedule A, 3-days-on/11-days-off (180 mg per 28-day cycle)", "value": 30, "unit": "mg/dose"}, {"measurement": "MTD", "setting": "Schedule B, 4-days-on/24-days-off (180 mg per 28-day cycle)", "value": 45, "unit": "mg/dose"}, {"measurement": "MTD", "setting": "Schedule C, 2-days-on/5-days-off (120 mg per 28-day cycle)", "value": 15, "unit": "mg/dose"}, {"measurement": "dose intensity below which well tolerated", "setting": "human, in vivo", "value": "below 200 mg per 28-day cycle"}, {"measurement": "further grade 3 and 4 TRAEs reported in one patient each", "setting": "overall part A population", "value": "Grade 3 essential hypertension, hypokalemia, lipase increased, liver function test abnormal, presyncope, skin hemorrhage, and grade 4 blood creatinine phosphokinase increased, diabetes mellitus, and inappropriate antidiuretic hormone secretion"}, {"measurement": "TRAE: ALT increased", "setting": "any grade", "value": 0, "unit": "%"}, {"measurement": "TRAE: Anemia", "setting": "any grade", "value": 28.57, "unit": "%"}, {"measurement": "TRAE: Any TRAE", "setting": "any grade", "value": 85.71, "unit": "%"}, {"measurement": "TRAE: Asthenia", "setting": "any grade", "value": 14.29, "unit": "%"}, {"measurement": "TRAE: Decreased appetite", "setting": "any grade", "value": 0, "unit": "%"}, {"measurement": "TRAE: Dehydration", "setting": "any grade", "value": 0, "unit": "%"}, {"measurement": "TRAE: Dermatitis acneiform", "setting": "any grade", "value": 0, "unit": "%"}, {"measurement": "TRAE: Diarrhoea", "setting": "any grade", "value": 42.86, "unit": "%"}, {"measurement": "TRAE: Dysgeusia", "setting": "any grade", "value": 14.29, "unit": "%"}, {"measurement": "TRAE: Fatigue", "setting": "any grade", "value": 0, "unit": "%"}, {"measurement": "TRAE: Hyperglycemia", "setting": "any grade", "value": 0, "unit": "%"}, {"measurement": "TRAE: Hypertension", "setting": "any grade", "value": 0, "unit": "%"}, {"measurement": "TRAE: Hyponatremia", "setting": "any grade", "value": 0, "unit": "%"}, {"measurement": "TRAE: Hypophosphatemia", "setting": "any grade", "value": 0, "unit": "%"}, {"measurement": "TRAE: Nausea", "setting": "any grade", "value": 28.57, "unit": "%"}, {"measurement": "TRAE: Neutropenia", "setting": "any grade", "value": 0, "unit": "%"}, {"measurement": "TRAE: Platelet count decreased", "setting": "any grade", "value": 0, "unit": "%"}, {"measurement": "TRAE: Stomatitis", "setting": "any grade", "value": 42.86, "unit": "%"}, {"measurement": "TRAE: Thrombocytopenia", "setting": "any grade", "value": 71.43, "unit": "%"}, {"measurement": "TRAE: Vomiting", "setting": "any grade", "value": 14.29, "unit": "%"}, {"measurement": "TRAE: ALT increased", "setting": "grade 3", "value": 0, "unit": "%"}, {"measurement": "TRAE: Anemia", "setting": "grade 3", "value": 14.29, "unit": "%"}, {"measurement": "TRAE: Any TRAE", "setting": "grade 3", "value": 14.29, "unit": "%"}, {"measurement": "TRAE: Asthenia", "setting": "grade 3", "value": 0, "unit": "%"}, {"measurement": "TRAE: Decreased appetite", "setting": "grade 3", "value": 0, "unit": "%"}, {"measurement": "TRAE: Dehydration", "setting": "grade 3", "value": 0, "unit": "%"}, {"measurement": "TRAE: Dermatitis acneiform", "setting": "grade 3", "value": 0, "unit": "%"}, {"measurement": "TRAE: Diarrhoea", "setting": "grade 3", "value": 0, "unit": "%"}, {"measurement": "TRAE: Dysgeusia", "setting": "grade 3", "value": 0, "unit": "%"}, {"measurement": "TRAE: Fatigue", "setting": "grade 3", "value": 0, "unit": "%"}, {"measurement": "TRAE: Hyperglycemia", "setting": "grade 3", "value": 0, "unit": "%"}, {"measurement": "TRAE: Hypertension", "setting": "grade 3", "value": 0, "unit": "%"}, {"measurement": "TRAE: Hyponatremia", "setting": "grade 3", "value": 0, "unit": "%"}, {"measurement": "TRAE: Hypophosphatemia", "setting": "grade 3", "value": 0, "unit": "%"}, {"measurement": "TRAE: Nausea", "setting": "grade 3", "value": 0, "unit": "%"}, {"measurement": "TRAE: Neutropenia", "setting": "grade 3", "value": 0, "unit": "%"}, {"measurement": "TRAE: Platelet count decreased", "setting": "grade 3", "value": 0, "unit": "%"}, {"measurement": "TRAE: Stomatitis", "setting": "grade 3", "value": 0, "unit": "%"}, {"measurement": "TRAE: Thrombocytopenia", "setting": "grade 3", "value": 0, "unit": "%"}, {"measurement": "TRAE: Vomiting", "setting": "grade 3", "value": 0, "unit": "%"}, {"measurement": "TRAE: ALT increased", "setting": "grade 4", "value": 0, "unit": "%"}, {"measurement": "TRAE: Anemia", "setting": "grade 4", "value": 0, "unit": "%"}, {"measurement": "TRAE: Any TRAE", "setting": "grade 4", "value": 14.29, "unit": "%"}, {"measurement": "TRAE: Asthenia", "setting": "grade 4", "value": 0, "unit": "%"}, {"measurement": "TRAE: Decreased appetite", "setting": "grade 4", "value": 0, "unit": "%"}, {"measurement": "TRAE: Dehydration", "setting": "grade 4", "value": 0, "unit": "%"}, {"measurement": "TRAE: Dermatitis acneiform", "setting": "grade 4", "value": 0, "unit": "%"}, {"measurement": "TRAE: Diarrhoea", "setting": "grade 4", "value": 0, "unit": "%"}, {"measurement": "TRAE: Dysgeusia", "setting": "grade 4", "value": 0, "unit": "%"}, {"measurement": "TRAE: Fatigue", "setting": "grade 4", "value": 0, "unit": "%"}, {"measurement": "TRAE: Hyperglycemia", "setting": "grade 4", "value": 0, "unit": "%"}, {"measurement": "TRAE: Hypertension", "setting": "grade 4", "value": 0, "unit": "%"}, {"measurement": "TRAE: Hyponatremia", "setting": "grade 4", "value": 0, "unit": "%"}, {"measurement": "TRAE: Hypophosphatemia", "setting": "grade 4", "value": 0, "unit": "%"}, {"measurement": "TRAE: Nausea", "setting": "grade 4", "value": 0, "unit": "%"}, {"measurement": "TRAE: Neutropenia", "setting": "grade 4", "value": 0, "unit": "%"}, {"measurement": "TRAE: Platelet count decreased", "setting": "grade 4", "value": 0, "unit": "%"}, {"measurement": "TRAE: Stomatitis", "setting": "grade 4", "value": 0, "unit": "%"}, {"measurement": "TRAE: Thrombocytopenia", "setting": "grade 4", "value": 14.29, "unit": "%"}, {"measurement": "TRAE: Vomiting", "setting": "grade 4", "value": 0, "unit": "%"}, {"measurement": "subjects with at least one DLT", "setting": "part A (N = 69)", "value": 6, "unit": "subjects"}, {"measurement": "Grade 3 or 4 TEAE anemia", "setting": "[1]", "value": 4.3, "unit": "%"}, {"measurement": "Grade 3 or 4 TEAE arthralgia", "setting": "[1]", "value": 2.9, "unit": "%"}, {"measurement": "Grade 3 or 4 TEAE asthenia", "setting": "[1]", "value": 5.8, "unit": "%"}, {"measurement": "Grade 3 or 4 TEAE back pain", "setting": "[1]", "value": 2.9, "unit": "%"}, {"measurement": "Grade 3 or 4 TEAE cognitive disorder", "setting": "[1]", "value": 2.9, "unit": "%"}, {"measurement": "Grade 3 or 4 TEAE decreased performance status", "setting": "[1]", "value": 2.9, "unit": "%"}, {"measurement": "Grade 3 or 4 TEAE decreased platelet count", "setting": "[1]", "value": 2.9, "unit": "%"}, {"measurement": "Grade 3 or 4 TEAE dyspnea", "setting": "[1]", "value": 2.9, "unit": "%"}, {"measurement": "Grade 3 or 4 TEAE fatigue", "setting": "[1]", "value": 2.9, "unit": "%"}, {"measurement": "Grade 3 or 4 TEAE hyperglycemia", "setting": "[1]", "value": 5.8, "unit": "%"}, {"measurement": "Grade 3 or 4 TEAE hypokalemia", "setting": "[1]", "value": 2.9, "unit": "%"}, {"measurement": "Grade 3 or 4 TEAE hyponatremia", "setting": "[1]", "value": 2.9, "unit": "%"}, {"measurement": "Grade 3 or 4 TEAE increased ALT", "setting": "[1]", "value": 4.3, "unit": "%"}, {"measurement": "Grade 3 or 4 TEAE thrombocytopenia", "setting": "[1]", "value": 13.0, "unit": "%"}, {"measurement": "TEAE abdominal pain", "setting": "[1]", "value": 14.5, "unit": "%"}, {"measurement": "TEAE anemia", "setting": "[1]", "value": 15.9, "unit": "%"}, {"measurement": "TEAE asthenia", "setting": "[1]", "value": 39.1, "unit": "%"}, {"measurement": "TEAE constipation", "setting": "[1]", "value": 13.0, "unit": "%"}, {"measurement": "TEAE decreased appetite", "setting": "[1]", "value": 24.6, "unit": "%"}, {"measurement": "TEAE dermatitis acneiform", "setting": "[1]", "value": 13.0, "unit": "%"}, {"measurement": "TEAE diarrhea", "setting": "[1]", "value": 42.0, "unit": "%"}]}]}
